Experimental data reported in ChEMBL document CHEMBL2311283, “Structural modifications to tetrahydropyridine-3-carboxylate esters en route to the discovery of M5-preferring muscarinic receptor orthosteric antagonists” (J Med Chem, 2013).

Experiments:
[1] = target: T1, Muscarinic acetylcholine receptor M4 (Homo sapiens, UniProt P08173); experiment: Binding affinity to human M4 muscarinic receptor
T1 sequence (P08173 whole entry): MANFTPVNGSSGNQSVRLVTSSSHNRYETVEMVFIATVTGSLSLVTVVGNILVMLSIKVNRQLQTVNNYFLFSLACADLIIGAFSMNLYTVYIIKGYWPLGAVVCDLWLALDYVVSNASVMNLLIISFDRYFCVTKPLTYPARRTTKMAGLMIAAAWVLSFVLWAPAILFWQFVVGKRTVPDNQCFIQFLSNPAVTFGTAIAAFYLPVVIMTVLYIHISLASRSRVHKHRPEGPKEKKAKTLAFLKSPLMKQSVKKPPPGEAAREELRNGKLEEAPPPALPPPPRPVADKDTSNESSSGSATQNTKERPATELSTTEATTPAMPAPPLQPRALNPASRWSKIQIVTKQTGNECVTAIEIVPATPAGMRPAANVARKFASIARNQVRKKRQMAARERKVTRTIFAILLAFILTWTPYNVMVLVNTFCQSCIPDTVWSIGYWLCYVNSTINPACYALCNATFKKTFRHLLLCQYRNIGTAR

[2] = target: T2, Muscarinic acetylcholine receptor M3 (Homo sapiens, UniProt P20309); experiment: Binding affinity to human M3 muscarinic receptor
T2 sequence (P20309 whole entry): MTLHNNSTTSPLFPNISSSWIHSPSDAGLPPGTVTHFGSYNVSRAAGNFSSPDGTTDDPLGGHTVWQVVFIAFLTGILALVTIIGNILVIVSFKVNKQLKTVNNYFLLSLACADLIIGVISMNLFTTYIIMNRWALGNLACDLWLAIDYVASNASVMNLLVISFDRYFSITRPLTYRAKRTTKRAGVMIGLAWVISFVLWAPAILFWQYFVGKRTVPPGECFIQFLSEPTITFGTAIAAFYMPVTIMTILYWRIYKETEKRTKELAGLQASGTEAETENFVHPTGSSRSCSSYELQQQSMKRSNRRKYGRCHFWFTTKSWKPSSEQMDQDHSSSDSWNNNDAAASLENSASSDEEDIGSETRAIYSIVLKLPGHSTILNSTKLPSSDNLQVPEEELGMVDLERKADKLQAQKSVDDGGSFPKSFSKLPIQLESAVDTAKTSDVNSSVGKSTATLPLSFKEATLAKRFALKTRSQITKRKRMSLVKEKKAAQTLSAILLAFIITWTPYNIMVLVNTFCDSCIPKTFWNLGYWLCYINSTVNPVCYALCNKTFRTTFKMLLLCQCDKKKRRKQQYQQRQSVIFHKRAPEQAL

[3] = target: T3, Muscarinic acetylcholine receptor M2 (Homo sapiens, UniProt P08172)
T3 sequence (P08172 whole entry): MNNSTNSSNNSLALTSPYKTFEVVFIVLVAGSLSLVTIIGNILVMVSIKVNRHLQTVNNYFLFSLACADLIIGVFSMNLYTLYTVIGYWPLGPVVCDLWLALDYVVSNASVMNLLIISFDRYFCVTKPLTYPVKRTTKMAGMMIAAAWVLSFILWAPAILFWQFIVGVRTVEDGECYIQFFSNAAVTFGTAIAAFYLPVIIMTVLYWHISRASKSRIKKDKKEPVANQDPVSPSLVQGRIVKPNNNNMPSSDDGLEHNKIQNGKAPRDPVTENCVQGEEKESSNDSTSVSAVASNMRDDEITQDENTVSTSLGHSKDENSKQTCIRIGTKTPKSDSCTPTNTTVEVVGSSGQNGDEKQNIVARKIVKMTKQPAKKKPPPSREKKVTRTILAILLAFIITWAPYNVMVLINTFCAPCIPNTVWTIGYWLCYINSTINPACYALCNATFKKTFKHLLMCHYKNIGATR

[4] = target: T4, Muscarinic acetylcholine receptor M5 (Rattus norvegicus) (UniProt P08911); conditions: at 1 µM
T4 sequence (whole entry): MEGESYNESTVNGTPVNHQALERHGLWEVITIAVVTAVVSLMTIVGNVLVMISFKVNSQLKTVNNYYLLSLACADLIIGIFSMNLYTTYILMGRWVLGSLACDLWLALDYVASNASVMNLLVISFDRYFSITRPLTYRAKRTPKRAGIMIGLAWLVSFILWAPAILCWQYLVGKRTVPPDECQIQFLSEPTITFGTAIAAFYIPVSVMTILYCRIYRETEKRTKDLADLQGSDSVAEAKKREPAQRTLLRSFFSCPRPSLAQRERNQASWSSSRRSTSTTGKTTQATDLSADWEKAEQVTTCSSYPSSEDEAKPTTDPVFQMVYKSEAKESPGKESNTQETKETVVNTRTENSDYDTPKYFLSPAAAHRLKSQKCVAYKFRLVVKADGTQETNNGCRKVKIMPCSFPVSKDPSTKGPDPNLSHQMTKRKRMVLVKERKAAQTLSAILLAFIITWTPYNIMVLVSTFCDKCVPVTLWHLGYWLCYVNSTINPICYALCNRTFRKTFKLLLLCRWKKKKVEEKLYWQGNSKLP

[5] = target: T4, Muscarinic acetylcholine receptor M5 (Rattus norvegicus); experiment: Orthosteric antagonist activity at M5 muscarinic receptor in rat striatal slices assessed as inhibition of 10 uM oxotremorine-evoked [3H]DA release
[6] = target: T1, Muscarinic acetylcholine receptor M4; experiment: Displacement of [3H]NMS from human M4 muscarinic receptor expressed in CHO-K1 cells; assay type: cell-based
[7] = target: T2, Muscarinic acetylcholine receptor M3; experiment: Displacement of [3H]NMS from human M3 muscarinic receptor expressed in CHO-K1 cells; assay type: cell-based
Homo sapiens [8] = species on record: Homo sapiens; experiment: Selectivity index, ratio of Ki for human M4 muscarinic receptor to Ki for human M5 muscarinic receptor
Homo sapiens [9] = species on record: Homo sapiens; experiment: Selectivity index, ratio of Ki for human M1 muscarinic receptor to Ki for human M5 muscarinic receptor
Homo sapiens [10] = species on record: Homo sapiens; experiment: Selectivity index, ratio of Ki for human M3 muscarinic receptor to Ki for human M5 muscarinic receptor
[11] = target: T3, Muscarinic acetylcholine receptor M2; experiment: Displacement of [3H]NMS from human M2 muscarinic receptor expressed in CHO-K1 cells; assay type: cell-based
[12] = target: T5, Muscarinic acetylcholine receptor M5 (Homo sapiens, UniProt P08912); experiment: Displacement of [3H]NMS from human M5 muscarinic receptor expressed in CHO-K1 cells; assay type: cell-based
T5 sequence (P08912 whole entry): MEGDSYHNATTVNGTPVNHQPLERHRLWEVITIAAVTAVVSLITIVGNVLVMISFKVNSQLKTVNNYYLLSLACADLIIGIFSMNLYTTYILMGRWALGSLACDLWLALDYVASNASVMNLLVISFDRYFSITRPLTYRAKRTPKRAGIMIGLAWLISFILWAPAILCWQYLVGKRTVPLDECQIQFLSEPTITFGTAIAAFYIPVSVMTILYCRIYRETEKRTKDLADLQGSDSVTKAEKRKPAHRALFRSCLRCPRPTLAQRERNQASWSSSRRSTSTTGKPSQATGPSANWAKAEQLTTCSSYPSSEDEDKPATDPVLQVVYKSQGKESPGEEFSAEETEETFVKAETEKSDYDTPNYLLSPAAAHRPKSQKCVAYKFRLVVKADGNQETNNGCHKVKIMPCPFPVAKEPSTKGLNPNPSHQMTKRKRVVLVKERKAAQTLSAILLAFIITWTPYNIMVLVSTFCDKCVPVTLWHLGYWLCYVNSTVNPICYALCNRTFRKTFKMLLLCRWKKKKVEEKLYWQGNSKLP

[13] = target: T6, Muscarinic acetylcholine receptor M1 (Homo sapiens, UniProt P11229); experiment: biochemical; assay type: cell-based, CHO-K1
T6 sequence (P11229 whole entry): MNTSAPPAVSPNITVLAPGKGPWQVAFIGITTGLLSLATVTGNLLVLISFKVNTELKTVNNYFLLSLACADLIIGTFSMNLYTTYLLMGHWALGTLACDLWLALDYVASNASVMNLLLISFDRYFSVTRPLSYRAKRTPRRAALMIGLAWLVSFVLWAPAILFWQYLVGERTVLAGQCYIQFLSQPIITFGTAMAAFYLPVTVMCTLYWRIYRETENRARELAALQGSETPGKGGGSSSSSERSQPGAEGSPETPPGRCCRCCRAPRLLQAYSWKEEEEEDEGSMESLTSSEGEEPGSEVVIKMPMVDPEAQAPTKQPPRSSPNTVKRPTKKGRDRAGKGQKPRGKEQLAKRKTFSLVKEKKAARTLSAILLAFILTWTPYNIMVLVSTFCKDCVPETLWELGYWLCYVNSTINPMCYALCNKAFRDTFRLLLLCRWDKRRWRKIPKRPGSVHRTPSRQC

CCN(CC)CC1CCCCN1CC(=O)N1c2ccccc2C(=O)Nc2cccnc21 (stereo not drawn) [OTENZEPAD]
Ki [1]: 407 nM
Ki [2]: 2090 nM
Ki [3]: 81 nM

CN1[C@@H]2C[C@@H](OC(=O)[C@H](CO)c3ccccc3)C[C@H]1[C@@H]1O[C@@H]12
Imax [4]: 100%
inhibition [5]: Dose-dependent effect

CCN1CCC(c2ccccc2)=C(C(=O)OCCc2ccc3c(c2)CCO3)C1
Ki [6]: 10500 nM
Ki [7]: 31100 nM
Ratio Ki (Homo sapiens [8]): 46
Ratio Ki (Homo sapiens [9]): 6
Ratio Ki (Homo sapiens [10]): 135
Ki [11]: > 100000 nM
Ki [12]: 230 nM
Ki [13]: 1390 nM
